Assay results published in US12145927B2 (BRISTOL-MYERS SQUIBB COMPANY, priority 2018, dated 2024).
pIC50: −log10 of the molar value.

Target: T1, human IDO1 (Homo sapiens, UniProt P14902)
T1 construct: expressed in transfected cells
Assay: IDO inhibition assay in human IDO1/HEK293 cells (IDO1 HEK Human)
Type: cell-based
Settings: HEK293 cells stably expressing human IDO1; 20 hours incubation; absorbance at 490 nm after Ehrlich reagent
Description: HEK293 cells were transfected with a pCDNA-based mammalian expression vector harboring human IDO1 cDNA (NM 002164.2) by electroporation. They were cultured in medium (DMEM with 10% FBS) containing 1 mg/ml G418 for two weeks. Clones of HEK293 cells that stably expressed human IDO1 protein were selected and expanded for IDO inhibition assay.
The human IDO1/HEK293 cells were seeded at 10,000 cells per 50 μL per well with RPMI/phenol red free media contains 10% FBS in a 384-well black wall clear bottom tissue culture plate (Matrix Technologies LLC) 100 nL of certain concentration of compound was then added to each well using ECHO liquid handling systems. The cells were incubated for 20 hours in 37° C. incubator with 5% CO2.
The compound treatments were stopped by adding trichloroacetic acid (Sigma-Aldrich) to a final concentration at 0.2%. The cell plate was further incubated at 50° C. for 30 minute. The equal volume supernatant (20 μL) and 0.2% (w/v) Ehrlich reagent (4-dimethylaminobenzaldehyde, Sigma-Aldrich) in glacial acetic acid were mixed in a new clear bottom 384-well plate. This plate was then incubated at RT for 30 minute. The absorbance at 490 nm was measured on Envision plate reader.
Compound IC50 values were calculated using the counts of 500 nM of a reference standard treatment as one hundred percent inhibition, and counts of no compound but DMSO treatment as zero percent inhibition.

T1 sequence (P14902 whole entry): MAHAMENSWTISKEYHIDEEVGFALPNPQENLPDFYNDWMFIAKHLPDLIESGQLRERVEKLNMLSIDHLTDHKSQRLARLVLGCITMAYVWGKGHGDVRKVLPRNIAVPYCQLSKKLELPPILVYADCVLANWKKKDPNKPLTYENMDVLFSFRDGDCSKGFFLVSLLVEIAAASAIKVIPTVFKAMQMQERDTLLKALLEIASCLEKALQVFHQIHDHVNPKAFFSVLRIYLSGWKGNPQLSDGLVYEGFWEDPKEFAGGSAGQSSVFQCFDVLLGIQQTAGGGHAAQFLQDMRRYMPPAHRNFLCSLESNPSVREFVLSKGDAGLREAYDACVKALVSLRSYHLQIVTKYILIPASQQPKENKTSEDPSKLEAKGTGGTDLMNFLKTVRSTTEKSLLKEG

pIC50 | SMILES
5.46 | O=C(Nc1cc(-c2ccccc2-c2nnn[nH]2)cc2c1OCCCC2c1ccccc1)NC1CC1 (single isomer, unassigned) [23 (En. 1), 1-(7-(2-(1H-tetrazol-5-yl)phenyl)-5-phenyl-2,3,4,5-tetrahydrobenzo[b]oxepin-9-yl)-3-cyclopropylurea]
< 5.22 | O=C(Nc1cc(-c2ccccc2-c2nnn[nH]2)cc2c1OCCCC2c1ccccc1)NC1CC1 (single isomer, unassigned) [23 (En. 2), 1-(7-(2-(1H-tetrazol-5-yl)phenyl)-5-phenyl-2,3,4,5-tetrahydrobenzo[b]oxepin-9-yl)-3-cyclopropylurea]
7.54 | Cc1ccc(CC(=O)Nc2cc(-c3ccccc3-c3nnn[nH]3)cc3c2OCCCC3C(C)C)cc1 (single isomer, unassigned) [25 (En. 1), N-(7-(2-(1H-tetrazol-5-yl)phenyl)-5-isopropyl-2,3,4,5-tetrahydrobenzo[b]oxepin-9-yl)-2-(p-tolyl)acetamide]
7.15 | Cc1ccc(CC(=O)Nc2cc(-c3ccccc3-c3nnn[nH]3)cc3c2OCCCC3C(C)C)cc1 (single isomer, unassigned) [25 (En. 2), N-(7-(2-(1H-tetrazol-5-yl)phenyl)-5-isopropyl-2,3,4,5-tetrahydrobenzo[b]oxepin-9-yl)-2-(p-tolyl)acetamide]
5.59 | Cc1ccc(-c2noc(Nc3cc(-c4ccccc4-c4nnn[nH]4)cc4c3OCCCC4c3ccccc3)n2)cc1 (single isomer, unassigned) [26 (En. 1), N-(7-(2-(1H-tetrazol-5-yl)phenyl)-5-phenyl-2,3,4,5-tetrahydrobenzo[b]oxepin-9-yl)-3-(p-tolyl)-1,2,4-oxadiazol-5-amine]
6.37 | Cc1ccc(-c2noc(Nc3cc(-c4ccccc4-c4nnn[nH]4)cc4c3OCCCC4c3ccccc3)n2)cc1 (single isomer, unassigned) [26 (En. 2), N-(7-(2-(1H-tetrazol-5-yl)phenyl)-5-phenyl-2,3,4,5-tetrahydrobenzo[b]oxepin-9-yl)-3-(p-tolyl)-1,2,4-oxadiazol-5-amine]
7.11 | CCC(C)C1CCCOc2c(NC(=O)Cc3ccc(C)cc3)cc(-c3ccccc3-c3nnn[nH]3)cc21 (single isomer, unassigned) [30 (Dia. mix 1), N-(7-(2-(1H-tetrazol-5-yl)phenyl)-5-(sec-butyl)-2,3,4,5-tetrahydrobenzo[b]oxepin-9-yl)-2-(p-tolyl)acetamide]
7.93 | CCC(C)C1CCCOc2c(NC(=O)Cc3ccc(C)cc3)cc(-c3ccccc3-c3nnn[nH]3)cc21 (single isomer, unassigned) [30 (Dia. mix 2), N-(7-(2-(1H-tetrazol-5-yl)phenyl)-5-(sec-butyl)-2,3,4,5-tetrahydrobenzo[b]oxepin-9-yl)-2-(p-tolyl)acetamide]
8.39 | CCC(C)C1CCCOc2c(NC(=O)Cc3ccc(C)cc3)cc(-c3ccccc3-c3nnn[nH]3)cc21 (single isomer, unassigned) [30 (En. 1), N-(7-(2-(1H-tetrazol-5-yl)phenyl)-5-(sec-butyl)-2,3,4,5-tetrahydrobenzo[b]oxepin-9-yl)-2-(p-tolyl)acetamide]
6.66 | Cc1ccc(CC(=O)Nc2cc(-c3ccccc3-c3nnn[nH]3)cc3c2OCCCC3C2CC2)cc1 (single isomer, unassigned) [37 (En. 1), N-(7-(2-(1H-tetrazol-5-yl)phenyl)-5-cyclopropyl-2,3,4,5-tetrahydrobenzo[b]oxepin-9-yl)-2-(p-tolyl)acetamide]
7.51 | Cc1ccc(CC(=O)Nc2cc(-c3ccccc3-c3nnn[nH]3)cc3c2OCCCC3C2CC2)cc1 (single isomer, unassigned) [37 (En. 2), N-(7-(2-(1H-tetrazol-5-yl)phenyl)-5-cyclopropyl-2,3,4,5-tetrahydrobenzo[b]oxepin-9-yl)-2-(p-tolyl)acetamide]
6.65 | O=C(Nc1ccccc1F)Nc1cc(-c2ccccc2-c2nnn[nH]2)cc2c1OCCCC2C1CC1 (single isomer, unassigned) [38 (En. 1), 1-(7-(2-(1H-tetrazol-5-yl)phenyl)-5-cyclopropyl-2,3,4,5-tetrahydrobenzo[b]oxepin-9-yl)-3-(2-fluorophenyl)urea]
7.71 | O=C(Nc1ccccc1F)Nc1cc(-c2ccccc2-c2nnn[nH]2)cc2c1OCCCC2C1CC1 (single isomer, unassigned) [38 (En. 2), 1-(7-(2-(1H-tetrazol-5-yl)phenyl)-5-cyclopropyl-2,3,4,5-tetrahydrobenzo[b]oxepin-9-yl)-3-(2-fluorophenyl)urea]
< 5.22 | Cc1ccc(CC(=O)Nc2cc(-c3ccccc3-c3nnn[nH]3)cc3c2OCCCC3C2CC2)c(F)c1 (single isomer, unassigned) [39 (En. 1)]
7.49 | Cc1ccc(CC(=O)Nc2cc(-c3ccccc3-c3nnn[nH]3)cc3c2OCCCC3C2CC2)c(F)c1 (single isomer, unassigned) [39 (En. 2)]
6.66 | O=C(Cc1ccccc1F)Nc1cc(-c2ccccc2-c2nnn[nH]2)cc2c1OCCCC2C1CC1 (single isomer, unassigned) [40 (En. 1), N-(7-(2-(1H-tetrazol-5-yl)phenyl)-5-cyclopropyl-2,3,4,5-tetrahydrobenzo[b]oxepin-9-yl)-2-(2-fluorophenyl)acetamide]
7.23 | O=C(Cc1ccccc1F)Nc1cc(-c2ccccc2-c2nnn[nH]2)cc2c1OCCCC2C1CC1 (single isomer, unassigned) [40 (En. 2), N-(7-(2-(1H-tetrazol-5-yl)phenyl)-5-cyclopropyl-2,3,4,5-tetrahydrobenzo[b]oxepin-9-yl)-2-(2-fluorophenyl)acetamide]
7.60 | O=C(Nc1ccc(Cl)cc1F)Nc1cc(-c2ccccc2-c2nnn[nH]2)cc2c1OCCCC2C1CC1 (single isomer, unassigned) [41 (En. 1), 1-(7-(2-(1H-tetrazol-5-yl)phenyl)-5-cyclopropyl-2,3,4,5-tetrahydrobenzo[b]oxepin-9-yl)-3-(4-chloro-2-fluorophenyl)urea]
7.03 | O=C(Nc1ccc(Cl)cc1F)Nc1cc(-c2ccccc2-c2nnn[nH]2)cc2c1OCCCC2C1CC1 (single isomer, unassigned) [41 (En. 2), 1-(7-(2-(1H-tetrazol-5-yl)phenyl)-5-cyclopropyl-2,3,4,5-tetrahydrobenzo[b]oxepin-9-yl)-3-(4-chloro-2-fluorophenyl)urea]
6.67 | c1ccc(C2CCCOc3c(Nc4nc5ccccc5o4)cc(-c4ccccc4-c4nnn[nH]4)cc32)cc1 (single isomer, unassigned) [53 (En. 1), N-(7-(2-(1H-tetrazol-5-yl)phenyl)-5-phenyl-2,3,4,5-tetrahydrobenzo[b]oxepin-9-yl) benzo[d] oxazol-2-amine]
8.89 | c1ccc(C2CCCOc3c(Nc4nc5ccccc5o4)cc(-c4ccccc4-c4nnn[nH]4)cc32)cc1 (single isomer, unassigned) [53 (En. 2), N-(7-(2-(1H-tetrazol-5-yl)phenyl)-5-phenyl-2,3,4,5-tetrahydrobenzo[b]oxepin-9-yl) benzo[d] oxazol-2-amine]
5.85 | Cc1cnc(Nc2cc(-c3ccccc3-c3nnn[nH]3)cc3c2OCCCC3c2ccccc2)nc1 (single isomer, unassigned) [55 (En. 1), N-(7-(2-(1H-tetrazol-5-yl)phenyl)-5-phenyl-2,3,4,5-tetrahydrobenzo[b]oxepin-9-yl)-5-methylpyrimidin-2-amine]
7.11 | Cc1cnc(Nc2cc(-c3ccccc3-c3nnn[nH]3)cc3c2OCCCC3c2ccccc2)nc1 (single isomer, unassigned) [55 (En. 2), N-(7-(2-(1H-tetrazol-5-yl)phenyl)-5-phenyl-2,3,4,5-tetrahydrobenzo[b]oxepin-9-yl)-5-methylpyrimidin-2-amine]
6.07 | Fc1ccc2nc(Nc3cc(-c4ccccc4-c4nnn[nH]4)cc4c3OCCCC4c3ccccc3)sc2c1 (single isomer, unassigned) [57 (En. 1), N-(7-(2-(1H-tetrazol-5-yl)phenyl)-5-phenyl-2,3,4,5-tetrahydrobenzo[b]oxepin-9-yl)-6-fluorobenzo[d]thiazol-2-amine]
6.72 | Fc1ccc2nc(Nc3cc(-c4ccccc4-c4nnn[nH]4)cc4c3OCCCC4c3ccccc3)sc2c1 (single isomer, unassigned) [57 (En. 2), N-(7-(2-(1H-tetrazol-5-yl)phenyl)-5-phenyl-2,3,4,5-tetrahydrobenzo[b]oxepin-9-yl)-6-fluorobenzo[d]thiazol-2-amine]
6.55 | CC(=O)NS(=O)(=O)c1ccccc1-c1cc(NC(=O)Nc2ccc(C)cc2)c2c(c1)C(c1ccccc1)CCCO2 (single isomer, unassigned) [59 (En. 2), N-((2-(5-phenyl-9-(3-(p-tolyl)ureido)-2,3,4,5-tetrahydrobenzo[b]oxepin-7-yl)phenyl)sulfonyl)acetamide]
< 5.22 | Cc1ccc(NC(=O)Nc2cc(-c3ccccc3S(=O)(=O)NC(=O)c3ccccc3)cc3c2OCCCC3c2ccccc2)cc1 (single isomer, unassigned) [60 (En. 1), N-((2-(5-phenyl-9-(3-(p-tolyl)ureido)-2,3,4,5-tetrahydrobenzo[b]oxepin-7-yl)phenyl)sulfonyl)benzamide]
